Measurements from US20240109898A1, “SUBSTITUTED PYRAZOLO[1,5-A]PYRIMIDINE-7-AMINE DERIVATIVES, COMPOSITIONS AND PHARMACEUTICAL USES THEREOF” (SHANGHAI HAIYAN PHARMACEUTICAL TECHNOLOGY CO., LTD., priority 2021, published 2024).

Key:
Type in all cases: biochemical
[1] = target: CDK9/CycT (Homo sapiens (Human), UniProt P50750); assay: LANCE Ultra kinase activity inhibition assay, CDK9/CycT; conditions: ATP 10 μM, highest compound concentration 1 μM
Description: (§1) In the following LANCE Ultra test methods, kinase reagents were purchased from Carna Bioscience, reaction substrates and detection reagents were purchased from PerkinElmer, and the remaining reagents were purchased from Thermo scientific.
The inhibiting effects on the kinase activity of CDK1/CycB (Carna bioscience, #04-102), CDK2/CycA (Carna bioscience, #04-103) and CDK9/CycT (Carna bioscience, #04-110) were determined by using LANCE Ultra method.
The kinase activity test was performed using a system (10 μL) containing the following components: substrate diluent prepared by mixing CDK kinase diluent, Ulight-Myelic basic protein (Perkin Elmer, #TRF-0109, hereinafter referred to as U-MBP) and ATP (Thermo scientific, #PV3227); and the compounds (i.e., analyte) prepared in the examples of the present disclosure. The assay for each kinase includes three test groups, i.e., a background group (Blank), a non-inhibition group (PC), and compound testing group (Test). The components included in each test group were as follows:
(§2) Working concentrations of the respective components of the Test groups in different kinase reactions were as follows.
(§3) Compounds: 10 mM of the compound to be tested was dissolved at room temperature and diluted with DMSO to gradient concentrations, followed by diluting with deionized water to prepare a 4× working solution of the compound, and the content of DMSO was 2%. The highest concentration of compound used in the CDK1 and CDK2 assays was 10 μM, and that in CDK9 assay was 1 μM.
1.33×reaction buffer: the components include 26.7 mM of MOPS, 6.67 mM of MgCl2, and 0.0133% Tween-20, which were stored in a 4° C. refrigerator and protected from light after preparation. Freshly prepared DTT was added to a final concentration of 5.33 mM before use.
(§4) The working concentration of DMSO in the reaction was 0.5%.
(§5) The above-mentioned components, after being mixed, were placed on a shaker and incubated at room temperature in the dark for 1 h. 10 μL of test solution was then added to all test groups (including Blank, PC and Test groups).
10 μL of test solution contains the following components: 16 mM of EDTA (Thermo scientific, #15575), 1 nM of phosphorylated U-MBP protein antibody (Perkin Elmer, #TRF-0201), and 1× detection damping fluid (Perkin Elmer, #CR97-100).
After the test solution was added, the solution was placed on a shaker and continually incubated at room temperature for 1 h in the dark. At the end of incubation, Victor X5 fluorescence microplate reader of Perkin Elmer was used to read the signal; the wavelength of excitation light was 320 nm, and the wavelengths of emission light were 615 nm and 665 nm. The inhibition rate was calculated as below.
1. For all groups, a value of 665 nm/615 nm (hereinafter referred to as Ratio) was calculated, and an inhibition rate was calculated based on the Ratio of each group;
(§6) 2. Inhibition rate=(PCRatio-TestRatio)/(PCRatio-BlankRatio)*100%; and
(§7) 3. XLFIT 5.0 software (IDBS, UK) was used to fit a graph by using the logarithmic value of the compound concentration as the X-axis and the inhibition rater as the Y-axis, and a four-parameter model was used to calculate the half inhibitory concentration IC50 of the compound.

[2] = target: CDK1/CycB (Homo sapiens (Human), UniProt P06493); assay: LANCE Ultra kinase activity inhibition assay, CDK1/CycB; conditions: ATP 4 μM, highest compound concentration 10 μM
Chain of CDK1/CycB (P06493 whole entry): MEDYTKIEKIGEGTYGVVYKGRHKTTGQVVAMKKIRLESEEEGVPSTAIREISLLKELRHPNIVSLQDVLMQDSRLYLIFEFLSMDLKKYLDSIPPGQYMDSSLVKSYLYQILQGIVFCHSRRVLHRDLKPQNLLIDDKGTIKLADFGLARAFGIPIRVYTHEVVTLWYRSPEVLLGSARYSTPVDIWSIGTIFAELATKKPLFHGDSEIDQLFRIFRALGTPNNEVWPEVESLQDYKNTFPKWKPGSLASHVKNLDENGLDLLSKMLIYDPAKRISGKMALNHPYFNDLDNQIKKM
Chain of CDK1/CycB (P14635 whole entry partner): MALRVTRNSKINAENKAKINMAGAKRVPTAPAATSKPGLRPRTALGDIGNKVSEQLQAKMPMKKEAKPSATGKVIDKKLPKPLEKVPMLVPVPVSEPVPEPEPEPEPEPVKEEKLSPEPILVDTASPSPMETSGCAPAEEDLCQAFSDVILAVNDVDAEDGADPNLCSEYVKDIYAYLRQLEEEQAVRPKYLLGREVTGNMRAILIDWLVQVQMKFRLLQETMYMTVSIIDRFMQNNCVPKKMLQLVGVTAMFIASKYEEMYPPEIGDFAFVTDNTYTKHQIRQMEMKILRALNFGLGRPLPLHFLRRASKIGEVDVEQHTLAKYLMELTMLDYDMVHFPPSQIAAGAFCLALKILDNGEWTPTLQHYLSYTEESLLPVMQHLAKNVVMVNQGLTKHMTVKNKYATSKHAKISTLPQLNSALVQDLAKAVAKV
From the text: as §1
(§8) The assay for each kinase includes three test groups, i.e., a background group (Blank), a non-inhibition group (PC), and compound testing group (Test). The components included in each test group were as follows:
as §2, §3, §4, §5
(§9) After the test solution was added, the solution was placed on a shaker and continually incubated at room temperature for 1 h in the dark. […] The inhibition rate was calculated as below.
as §6, §7

[3] = target: CDK2/CycA (Homo sapiens (Human), UniProt P24941); assay: LANCE Ultra kinase activity inhibition assay, CDK2/CycA; conditions: ATP 10 μM, highest compound concentration 10 μM
From the text: as §1, §8, §2, §3, §4, §5, §9, §6, §7

Chain of CDK9/CycT (P50750 whole entry): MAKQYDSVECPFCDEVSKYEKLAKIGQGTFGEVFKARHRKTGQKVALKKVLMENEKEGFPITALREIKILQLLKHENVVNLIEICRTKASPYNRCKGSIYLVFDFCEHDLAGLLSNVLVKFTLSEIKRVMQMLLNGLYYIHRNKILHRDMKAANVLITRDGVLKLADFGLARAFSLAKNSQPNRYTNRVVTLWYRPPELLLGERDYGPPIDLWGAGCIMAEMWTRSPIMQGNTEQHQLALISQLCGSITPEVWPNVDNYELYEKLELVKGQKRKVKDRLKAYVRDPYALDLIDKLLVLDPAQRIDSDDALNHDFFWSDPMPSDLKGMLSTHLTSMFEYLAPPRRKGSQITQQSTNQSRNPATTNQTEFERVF
Chain of CDK9/CycT (O60563 whole entry partner): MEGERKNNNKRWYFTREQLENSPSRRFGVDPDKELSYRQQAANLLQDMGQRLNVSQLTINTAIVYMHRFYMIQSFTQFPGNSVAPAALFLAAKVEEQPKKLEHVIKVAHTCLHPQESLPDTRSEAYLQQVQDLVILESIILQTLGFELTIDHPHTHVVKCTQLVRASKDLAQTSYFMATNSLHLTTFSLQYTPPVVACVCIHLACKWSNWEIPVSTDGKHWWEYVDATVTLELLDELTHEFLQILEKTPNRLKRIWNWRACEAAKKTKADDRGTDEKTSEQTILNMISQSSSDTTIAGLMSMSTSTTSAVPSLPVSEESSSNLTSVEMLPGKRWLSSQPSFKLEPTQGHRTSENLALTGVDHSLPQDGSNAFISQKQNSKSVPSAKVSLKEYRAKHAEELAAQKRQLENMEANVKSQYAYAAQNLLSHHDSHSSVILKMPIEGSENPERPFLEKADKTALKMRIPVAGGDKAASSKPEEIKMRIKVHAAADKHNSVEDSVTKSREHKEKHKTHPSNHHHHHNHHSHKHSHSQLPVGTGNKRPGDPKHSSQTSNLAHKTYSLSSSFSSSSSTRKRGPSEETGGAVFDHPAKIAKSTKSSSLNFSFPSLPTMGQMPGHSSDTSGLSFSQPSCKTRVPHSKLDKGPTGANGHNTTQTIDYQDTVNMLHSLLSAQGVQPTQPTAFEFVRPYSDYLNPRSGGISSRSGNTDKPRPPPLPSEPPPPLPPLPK

Structure (SMILES) | IC50 [1] | IC50 [2] | IC50 [3]
CC(c1cc(N[C@H]2CC[C@H](N)C2)n2nccc2n1)(C1CC1)C1CC1 [Compound Z-22] | 0.013 µM | 1.77 µM | 8.64 µM
COC(c1cc(N[C@H]2CC[C@H](N)C2)n2nccc2n1)C1CC1 (stereo partly drawn) [Compound Z-49] | 0.062 µM | > 10 µM | > 10 µM
N[C@H]1CC[C@H](Nc2cc(C(F)C3CCCC3)nc3ccnn23)C1 (stereo partly drawn) [Compound Z-42] | 0.022 µM | 3.3 µM | 8.5 µM
CC(c1cc(N[C@H]2CC[C@H](N)C2)n2nccc2n1)C1CCC1 (stereo partly drawn) [Compound Z-11] | 0.022 µM |  | 
N[C@H]1CC[C@H](Nc2cc(C(F)C3CCC3)nc3ccnn23)C1 (stereo partly drawn) [Compound Z-70] | 0.023 µM | 2.26 µM | 3.88 µM
CC(C)(c1cc(N[C@H]2CC[C@H](N)C2)n2ncc(Cl)c2n1)C1CC1 [Compound Z-35] | 0.018 µM | 1.5 µM | 1.56 µM
CC(C)(c1cc(N[C@H]2CC[C@H](N)C2)n2nccc2n1)C1CC1 [Compound Z-12] | 0.02 µM | 2.72 µM | > 10 µM
Cc1cnn2c(N[C@H]3CC[C@H](N)C3)cc([C@@H](C)C3(C)CC3)nc12 [Compound Z-26-P2] | 0.078 µM | > 10 µM | > 10 µM
C[C@@H](c1cc(N[C@H]2CC[C@H](N)C2)n2nccc2n1)C1CCC1 [Compound Z-11-P2] | 0.03 µM |  | 
Cc1cnn2c(N[C@H]3CC[C@H](N)C3)cc(CC3(C)CC3)nc12 [Compound Z-25] | 0.021 µM | 9.87 µM | 8.71 µM
CC(=N)N[C@H]1CC[C@H](Nc2cc(C(C3CC3)C3CC3)nc3c(C(F)(F)F)cnn23)C1 [Compound Z-68] | 0.025 µM | 3.47 µM | 4.68 µM
C[C@@H](c1cc(N[C@H]2CC[C@H](N)C2)n2nccc2n1)C1(C)CC1 [Compound Z-27-P1] | 0.047 µM | 1.21 µM | > 10 µM
N[C@H]1CC[C@H](Nc2cc([C@H](F)C3CCC3)nc3ccnn23)C1 [Compound Z-41-P2] | 0.013 µM | 2.97 µM | 3.77 µM
COC[C@H](c1cc(N[C@H]2CC[C@H](N)C2)n2nccc2n1)C1CC1 [Compound Z-44] | 0.082 µM | > 10 µM | > 10 µM
CC[C@@H](c1cc(N[C@H]2CC[C@H](N)C2)n2ncc(C)c2n1)C1CC1 [Compound Z-30-P2] | 0.022 µM | 3.54 µM | 4.91 µM
CC(=O)N[C@H]1CC[C@H](Nc2cc(C(C)C3CC3)nc3c(Cl)cnn23)C1 (stereo partly drawn) [Compound Z-63] | 0.014 µM | 0.84 µM | 0.278 µM
CCC(c1cc(N[C@H]2CC[C@H](N)C2)n2nccc2n1)C1CCC1 (stereo partly drawn) [Compound Z-43] | 0.056 µM | 7.1 µM | > 10 µM
CC(c1cc(NC2CCN(N)C2)n2ncc(Cl)c2n1)C1CC1 (stereo not drawn) [Compound Z-47] | 0.035 µM | 1.04 µM | 1.91 µM
CC[C@H](c1cc(N[C@H]2CC[C@H](N)C2)n2nccc2n1)C1CC1 [Compound Z-28-P2] | 0.012 µM | 2.39 µM | > 10 µM
Cc1cnn2c(N[C@H]3CC[C@H](N)C3)cc(CC3CCC3)nc12 [Compound Z-51] | 0.065 µM | 7.76 µM | 7.75 µM
CC(c1cc(NC2CCN(N)C2)n2ncc(Cl)c2n1)C1CC1 (stereo not drawn) [Compound Z-48] | 0.068 µM | 1.47 µM | 2.22 µM
N[C@H]1CC[C@H](Nc2cc(CC3CC3)nc3c(F)cnn23)C1 [Compound Z-54] | 0.016 µM | 2.16 µM | 2.65 µM
N[C@H]1CC[C@H](Nc2cc(CC3CC3)nc3ccnn23)C1 [Compound Z-3] | 0.073 µM | > 10 µM | > 10 µM

Structure (SMILES) | IC50 [1] | IC50 [2] | IC50 [3]
Cc1cnn2c(N[C@H]3CC[C@H](N)C3)cc(C(C)C3(C)CC3)nc12 (stereo partly drawn) [Compound Z-26] | 0.026 µM | 3.92 µM | 7.06 µM
N[C@H]1CC[C@H](Nc2cc([C@@H](F)C3CCC3)nc3ccnn23)C1 [Compound Z-41-P1] | 0.047 µM | 4.59 µM | > 10 µM
CC(c1cc(N[C@H]2CC[C@H](N)C2)n2nccc2n1)C1(C)CC1 (stereo partly drawn) [Compound Z-27] | 0.009 µM | 0.772 µM | 2.82 µM
N[C@H]1CC[C@H](Nc2cc(C(F)C3CC3)nc3ccnn23)C1 (stereo partly drawn) [Compound Z-53] | 0.047 µM | 4.86 µM | > 10 µM
N#Cc1cnn2c(N[C@H]3CC[C@H](N)C3)cc(C(C3CC3)C3CC3)nc12 [Compound Z-4] | 0.014 µM | 0.716 µM | 0.828 µM
C=CCC(C)(C)c1cc(N[C@H]2CC[C@H](N)C2)n2nccc2n1 [Compound Z-57] | 0.058 µM | 4.97 µM | > 10 µM
C[C@@H](c1cc(N[C@H]2CC[C@H](N)C2)n2nccc2n1)C1CC1 [Compound Z-5-1] | 0.023 µM |  | 
C=Cc1cnn2c(N[C@H]3CC[C@H](N)C3)cc(C(C)C3CC3)nc12 (stereo partly drawn) [Compound Z-60] | 0.024 µM | 2.49 µM | 3.2 µM
CC(c1cc(N[C@H]2CC[C@H](NC(=N)N)C2)n2ncc(F)c2n1)C1CC1 (stereo partly drawn) [Compound Z-71] | 0.028 µM | 1.88 µM | 4.53 µM
N[C@H]1CC[C@H](Nc2cc(C(C3CC3)C3CC3)nc3c(C4CC4)cnn23)C1 [Compound Z-14] | 0.042 µM | 1.61 µM | 2.55 µM
CC(C)(c1cc(N[C@H]2CC[C@H](N)C2)n2nccc2n1)C1CCC1 [Compound Z-39] | 0.034 µM | 2.48 µM | > 10 µM
C[C@H](c1cc(N[C@H]2CC[C@H](N)C2)n2nccc2n1)C1(C)CC1 [Compound Z-27-P2] | 0.008 µM | 2.08 µM | 2.78 µM
CCc1cnn2c(N[C@H]3CC[C@H](N)C3)cc(C(C3CC3)C3CC3)nc12 [Compound Z-16] | 0.022 µM | 1.27 µM | 1.27 µM
Cc1cnn2c(N[C@H]3CC[C@H](N)C3)cc([C@H](C)C3CCC3)nc12 (single isomer, unassigned) [Compound Z-38-P2] | 0.016 µM |  | 
N[C@H]1CC[C@H](Nc2cc(C(C3CC3)C3CC3)nc3c(C(F)(F)F)cnn23)C1 [Compound Z-33] | 0.006 µM | 0.347 µM | 0.355 µM
C[C@@H](c1cc(N[C@H]2C[C@H](N)C2)n2nccc2n1)C1CC1 [Compound Z-62-P2] | 0.024 µM | 1.82 µM | > 10 µM
CC[C@@H](c1cc(N[C@H]2CC[C@H](N)C2)n2nccc2n1)C1CC1 [Compound Z-28-P1] | 0.006 µM | 2.05 µM | 4.51 µM
Cc1cnn2c(N[C@H]3CC[C@H](N)C3)cc(CC3CC3)nc12 [Compound Z-52] | 0.032 µM | 7.15 µM | 6.15 µM
Cc1cnn2c(N[C@H]3CC[C@H](N)C3)cc([C@H](C)C3CCC3)nc12 (single isomer, unassigned) [Compound Z-38-P1] | 0.04 µM |  | 
CC(c1cc(N[C@H]2CC[C@H](N)C2)n2nccc2n1)C1CC1 (stereo partly drawn) [Compound Z-5] | 0.017 µM |  | 
Cc1cnn2c(N[C@H]3CC[C@H](N)C3)cc(C(C)C3CCC3)nc12 (stereo partly drawn) [Compound Z-38] | 0.017 µM |  | 
NN1CCC(Nc2cc(C(C3CC3)C3CC3)nc3ccnn23)C1 (stereo not drawn) [Compound Z-59] |  | 8.82 µM | > 10 µM
